Measured values reported in US20230085307A1, “PYRIDAZINONE COMPOUND AND HERBICIDE” (NISSAN CHEMICAL CORPORATION, priority 2019, published 2023).

Experiments:
barnyard grass [1] = assay: Test Example 3: herbicidal effect by foliage application, Wagner pot (Table 18, symbol H); assay type: in vivo, barnyard grass (Echinochloa crus-galli); settings: 320 g/ha
Summary of the method: (§1)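 Plants were sown in alluvial soil held under 0.1–0.5 cm standing water and grown 14 days in a greenhouse at 25–30 °C. An emulsifiable formulation, water-diluted to the set dose, was then sprayed onto the foliage, and effects were scored three weeks later using previously defined criteria.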

Chinese sprangletop = assay: Test Example 3: herbicidal effect by foliage application, Wagner pot (Table 18, symbol D); assay type: in vivo, chinese sprangletop (Leptochloa chinensis); settings: 320 g/ha
Summary of the method: as §1

rice flat sedge = assay: Test Example 3: herbicidal effect by foliage application, Wagner pot (Table 18, symbol E); assay type: in vivo, rice flat sedge (Cyperus iria); settings: 320 g/ha
Summary of the method: as §1

southern crabgrass [2] = assay: Test Example 4: herbicidal effect by soil treatment (Table 19, symbol F); assay type: in vivo, southern crabgrass (Digitaria ciliaris); settings: AAH 320 g/ha
Summary of the method: (§2)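 Applied as a water-diluted emulsion, the compound was sprayed onto soil covering newly sown seeds. Evaluation came three weeks after application, in a greenhouse held at 25° C. to 30° C.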

green foxtail [3] = assay: Test Example 4: herbicidal effect by soil treatment (Table 19, symbol G); assay type: in vivo, green foxtail (Setaria viridis); settings: AAH 320 g/ha
Summary of the method: as §2

barnyard grass [4] = assay: Test Example 4: herbicidal effect by soil treatment (Table 19, symbol H); assay type: in vivo, barnyard grass (Echinochloa crus-galli); settings: AAH 320 g/ha
Summary of the method: as §2

wild oat [5] = assay: Test Example 4: herbicidal effect by soil treatment (Table 19, symbol I); assay type: in vivo, wild oat (Avena fatua); settings: AAH 320 g/ha
Summary of the method: as §2

blackgrass [6] = assay: Test Example 4: herbicidal effect by soil treatment (Table 19, symbol J); assay type: in vivo, blackgrass (Alopecurus myosuroides); settings: AAH 320 g/ha
Summary of the method: as §2

Italian ryegrass [7] = assay: Test Example 4: herbicidal effect by soil treatment (Table 19, symbol K); assay type: in vivo, Italian ryegrass (Lolium multiflorum); settings: AAH 320 g/ha
Summary of the method: as §2

velvetleaf [8] = assay: Test Example 4: herbicidal effect by soil treatment (Table 19, symbol M); assay type: in vivo, velvetleaf (Abutilon theophrasti); settings: AAH 320 g/ha
Summary of the method: as §2

redroot pigweed [9] = assay: Test Example 4: herbicidal effect by soil treatment (Table 19, symbol N); assay type: in vivo, redroot pigweed (Amaranthus retroflexus); settings: AAH 320 g/ha
Summary of the method: as §2

lambsquarters [10] = assay: Test Example 4: herbicidal effect by soil treatment (Table 19, symbol O); assay type: in vivo, lambsquarters (Chenopodium album); settings: AAH 320 g/ha
Summary of the method: as §2

chickweed [11] = assay: Test Example 4: herbicidal effect by soil treatment (Table 19, symbol P); assay type: in vivo, common chickweed (Stellaria media); settings: AAH 320 g/ha
Summary of the method: as §2

false cleavers = assay: Test Example 4: herbicidal effect by soil treatment (Table 19, symbol Q); assay type: in vivo, false cleavers (Galium spurium); settings: AAH 320 g/ha
Summary of the method: as §2

persian speedwell [12] = assay: Test Example 4: herbicidal effect by soil treatment (Table 19, symbol R); assay type: in vivo, Persian speedwell (Veronica persica); settings: AAH 320 g/ha
Summary of the method: as §2

southern crabgrass [13] = assay: Test Example 5: herbicidal effect by foliage application, plastic box (Table 20, symbol F); assay type: in vivo, southern crabgrass (Digitaria ciliaris); settings: foliage application, AAH 320 g/ha, three weeks after application
Summary of the method: (§3)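 Sow seeds spot-wise in sterilized diluvial soil; cover with ~1.5 cm soil. Grow 14 days in greenhouse, 25° C. to 30° C. Spray foliage with emulsion diluted to predetermined amount. Rate effect after 3 weeks.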

green foxtail [14] = assay: Test Example 5: herbicidal effect by foliage application, plastic box (Table 20, symbol G); assay type: in vivo, green foxtail (Setaria viridis); settings: foliage application, AAH 320 g/ha, three weeks after application
Summary of the method: as §3

barnyard grass [15] = assay: Test Example 5: herbicidal effect by foliage application, plastic box (Table 20, symbol H); assay type: in vivo, barnyard grass (Echinochloa crus-galli); settings: foliage application, AAH 320 g/ha, three weeks after application
Summary of the method: as §3

wild oat [16] = assay: Test Example 5: herbicidal effect by foliage application, plastic box (Table 20, symbol I); assay type: in vivo, wild oat (Avena fatua); settings: foliage application, AAH 320 g/ha, three weeks after application
Summary of the method: as §3

blackgrass [17] = assay: Test Example 5: herbicidal effect by foliage application, plastic box (Table 20, symbol J); assay type: in vivo, blackgrass (Alopecurus myosuroides); settings: foliage application, AAH 320 g/ha, three weeks after application
Summary of the method: as §3

Italian ryegrass [18] = assay: Test Example 5: herbicidal effect by foliage application, plastic box (Table 20, symbol K); assay type: in vivo, Italian ryegrass (Lolium multiflorum); settings: foliage application, AAH 320 g/ha, three weeks after application
Summary of the method: as §3

windgrass = assay: Test Example 5: herbicidal effect by foliage application, plastic box (Table 20, symbol L); assay type: in vivo, windgrass (Apera spica-venti); settings: foliage application, AAH 320 g/ha, three weeks after application
Summary of the method: as §3

velvetleaf [19] = assay: Test Example 5: herbicidal effect by foliage application, plastic box (Table 20, symbol M); assay type: in vivo, velvetleaf (Abutilon theophrasti); settings: foliage application, AAH 320 g/ha, three weeks after application
Summary of the method: as §3

redroot pigweed [20] = assay: Test Example 5: herbicidal effect by foliage application, plastic box (Table 20, symbol N); assay type: in vivo, redroot pigweed (Amaranthus retroflexus); settings: foliage application, AAH 320 g/ha, three weeks after application
Summary of the method: as §3

lambsquarters [21] = assay: Test Example 5: herbicidal effect by foliage application, plastic box (Table 20, symbol O); assay type: in vivo, lambsquarters (Chenopodium album); settings: foliage application, AAH 320 g/ha, three weeks after application
Summary of the method: as §3

chickweed [22] = assay: Test Example 5: herbicidal effect by foliage application, plastic box (Table 20, symbol P); assay type: in vivo, common chickweed (Stellaria media); settings: foliage application, AAH 320 g/ha, three weeks after application
Summary of the method: as §3

persian speedwell [23] = assay: Test Example 5: herbicidal effect by foliage application, plastic box (Table 20, symbol R); assay type: in vivo, Persian speedwell (Veronica persica); settings: foliage application, AAH 320 g/ha, three weeks after application
Summary of the method: as §3

COc1nn(C)c(=O)c(-c2c(-c3ccc(F)c(C)c3)sc3ccccc23)c1O [1-174]
herbicidal effect on H (barnyard grass), rating 0-5 (barnyard grass [1]): 1 (Herbicidal rate of 5% or more and less than 20%) | herbicidal effect on D (Chinese sprangletop), rating 0-5 (Chinese sprangletop): 0 (Herbicidal rate of 5% or less (almost no effect)) | herbicidal effect on E (rice flat sedge), rating 0-5 (rice flat sedge): 3 (Herbicidal rate of 40% or more and less than 70%) | F: southern crabgrass, herbicidal effect rating (southern crabgrass [2]): 0 (Herbicidal rate of 5% or less (almost no effect)) | G: green foxtail, herbicidal effect rating (green foxtail [3]): 0 (Herbicidal rate of 5% or less (almost no effect)) | H: barnyard grass, herbicidal effect rating (barnyard grass [4]): 0 (Herbicidal rate of 5% or less (almost no effect)) | I: wild oat, herbicidal effect rating (wild oat [5]): 0 (Herbicidal rate of 5% or less (almost no effect)) | J: blackgrass, herbicidal effect rating (blackgrass [6]): 0 (Herbicidal rate of 5% or less (almost no effect)) | K: Italian ryegrass, herbicidal effect rating (Italian ryegrass [7]): 0 (Herbicidal rate of 5% or less (almost no effect)) | M: velvetleaf, herbicidal effect rating (velvetleaf [8]): 0 (Herbicidal rate of 5% or less (almost no effect)) | N: redroot pigweed, herbicidal effect rating (redroot pigweed [9]): 0 (Herbicidal rate of 5% or less (almost no effect)) | O: lambsquarters, herbicidal effect rating (lambsquarters [10]): 0 (Herbicidal rate of 5% or less (almost no effect)) | P: chickweed, herbicidal effect rating (chickweed [11]): 5 (Herbicidal rate of 90% or more (almost completely withered)) | Q: false cleavers, herbicidal effect rating (false cleavers): 0 (Herbicidal rate of 5% or less (almost no effect)) | R: persian speedwell, herbicidal effect rating (persian speedwell [12]): 4 (Herbicidal rate of 70% or more and less than 90%) | F: southern crabgrass, herbicidal effect (southern crabgrass [13]): 0 (Herbicidal rate of 5% or less (almost no effect)) | G: green foxtail, herbicidal effect (green foxtail [14]): 2 (Herbicidal rate of 20% or more and less than 40%) | H: barnyard grass, herbicidal effect (barnyard grass [15]): 0 (Herbicidal rate of 5% or less (almost no effect)) | I: wild oat, herbicidal effect (wild oat [16]): 0 (Herbicidal rate of 5% or less (almost no effect)) | J: blackgrass, herbicidal effect (blackgrass [17]): 0 (Herbicidal rate of 5% or less (almost no effect)) | K: Italian ryegrass, herbicidal effect (Italian ryegrass [18]): 1 (Herbicidal rate of 5% or more and less than 20%) | L: windgrass, herbicidal effect (windgrass): 0 (Herbicidal rate of 5% or less (almost no effect)) | M: velvetleaf, herbicidal effect (velvetleaf [19]): 4 (Herbicidal rate of 70% or more and less than 90%) | N: redroot pigweed, herbicidal effect (redroot pigweed [20]): 0 (Herbicidal rate of 5% or less (almost no effect)) | O: lambsquarters, herbicidal effect (lambsquarters [21]): 2 (Herbicidal rate of 20% or more and less than 40%) | P: chickweed, herbicidal effect (chickweed [22]): 5 (Herbicidal rate of 90% or more (almost completely withered)) | R: persian speedwell, herbicidal effect (persian speedwell [23]): 4 (Herbicidal rate of 70% or more and less than 90%)
